For one data set, the system named is SARS-CoV-2. The data set is classed as cell-based.
Another data set relates to Vero E6 cells. The settings on record: remdesivir co-treated with brequinar.
Another data set relates to advanced lung cancer. The following applies: weekly rapid iv injection, previously treated patients with advanced lung cancer; cited from earlier work.
The test system of data set [1] is acute myeloid leukemia (AML). The data set is described as follows: Effect of brequinar-containing composition on patient with AML. In kind it is in vivo, human.
The next data set concerns RNA virus. The data set is described as follows: Daily brequinar x 5 days in a subject infected with an RNA virus. The data set is classed as in vivo. The settings on record: at first peak in brequinar level, once per day for five days. Here is the method: The mechanism by which administration of a DHODH inhibitor according to a daily dosing regimen inhibits viral replication is illustrated below. […] Throughout the course of the dosing regimen, levels of intracellular pyrimidines, such as uridine, and viral replication are measured.

The target in another data set is DHODH (Homo sapiens, UniProt Q02127).
DHODH, sequence (Q02127 whole entry): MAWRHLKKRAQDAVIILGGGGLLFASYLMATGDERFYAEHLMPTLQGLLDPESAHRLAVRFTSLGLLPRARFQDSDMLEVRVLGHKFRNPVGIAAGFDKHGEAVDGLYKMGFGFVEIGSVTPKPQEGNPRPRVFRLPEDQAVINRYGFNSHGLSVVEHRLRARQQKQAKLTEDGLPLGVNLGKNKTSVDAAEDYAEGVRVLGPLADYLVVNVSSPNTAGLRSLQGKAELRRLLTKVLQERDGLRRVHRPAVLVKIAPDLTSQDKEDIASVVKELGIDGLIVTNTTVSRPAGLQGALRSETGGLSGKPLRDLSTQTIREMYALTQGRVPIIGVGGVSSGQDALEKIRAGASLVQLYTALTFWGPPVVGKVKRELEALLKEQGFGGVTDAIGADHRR
For data set [2] the following is noted: in vivo.
The conditions of data set [3]: in vivo. The source holds these as a separate data set.
Data set [4] is described as follows: Adverse events in subjects receiving brequinar intravenously once a week. The following applies: Infection.
The test system of another data set is solid malignancies. The settings on record: cited from earlier work; for recommended dose for phase II studies: 1-h i.v. infusion every 3 weeks; for maximum tolerable dose: i.v. infusion every 3 weeks.

Like-named read-outs stand apart in the source and are kept apart here.

In the case of `CCC(CC)COC(=O)[C@H](C)N[P@](=O)(OC[C@H]1O[C@@](C#N)(c2ccc3c(N)ncnn23)[C@H](O)[C@@H]1O)Oc1ccccc1` [remdesivir], the results for the “Min Data” value with SARS-CoV-2 (brequinar 0.000 μM) and in the data set on SARS-CoV-2 (brequinar 0.078 μM) were −11% and −1.9%, respectively. For the same compound, the cytotoxicity of co-treatment entry with Vero E6 cells is recorded as “No enhanced cytotoxicity”.
On to `NC(=O)c1[nH]nc([C@@H]2O[C@H](CO)[C@@H](O)[C@H]2O)c1O` [PYR, 5-[(2S,3R,4S,5R)-3,4-dihydroxy-5-(hydroxymethyl)oxolan-2-yl]-4-hydroxy-1H-pyrazole-3-carboxamide], for which, in the data set with advanced lung cancer, the therapeutic value entry is on record as “has little therapeutic value as a single agent”.
Regarding `Cc1c(-c2ccc(-c3ccccc3F)cc2)nc2ccc(F)cc2c1C(=O)O` [brequinar, 6-fluoro-2-(2′-fluoro-1,1′ biphenyl-4-yl)-3-methyl-4-quinoline carboxylic acid], in data set [1] (first patient with AML (Example 12)), the response result is “positive response as indicated by reduction in bone marrow blast count, improvement of extramedullary hematopoiesis, and shift to more differentiation in peripheral blasts”. Also, the response result in [1] (patient with AML of Example 14) is on record as “positive response as indicated by a trend towards differentiation of their peripheral blasts”. Also, in data set [1] (second patient with AML (Example 13)), the response entry is “positive response to the disease with a lowering of peripheral blasts and increase in absolute neutrophil count, along with greater differentiation of peripheral blasts”. Moreover, in the data set with RNA virus, the intracellular pyrimidine pool entry was “dramatic decrease in the intracellular pyrimidine pool” and the viral replication result was “dramatic reduction in viral replication”. Moreover, at DHODH, the “concentrations at which DHODH is almost completely inhibited” value was > 1 µM. Also, in [2], the “effect of repeated doses” value is “No cumulative effective of repeated doses”. In addition, the “oral versus IV formulations” value in [3] was “oral and IV formulations are equivalent”. In addition, in [4], the “No. of Patients” value was 7; the “No. of Patients Experiencing the AE, 5 y Max Grade 1” value amounted to 4; the “No. of Patients Experiencing the AE, 5 y Max Grade 2” value was found to be 3; the “No. of Patients Experiencing the AE, 5 y Max Grade 3” value came to 0. Besides, in data set [4], the “No. of Patients Experiencing the AE, 5 y Max Grade 4” value is listed as 0 and the Percent was 3.3%.
In the case of `Cc1c(-c2ccc(-c3ccccc3F)cc2)nc2ccc(F)cc2c1C(=O)O` [Brequinar sodium], in the data set on solid malignancies (good-risk patients), the “recommended dose for phase II studies” value is listed as 1,800 mg/m^2 and the maximum tolerable dose is 2,250 mg/m^2. Moreover, the tumor response entry in the data set on solid malignancies (patient with papillary carcinoma of the thyroid) is on record as “One mixed response”. In the data set with solid malignancies (poor-risk patients), the “recommended dose for phase II studies” value is 1,200 mg/m^2 and the maximum tolerable dose is 1,500 mg/m^2.
